# In patent US5128359A, “Benzimidazole and azabenzimidazole derivatives which are thromboxane receptor antagonists, their methods of preparation” (Laboratoires UPSA, priority 1990, dated 1992):
# pKi: −log10 of the molar value.
# Target: T1, TXA2 receptors of human platelets (Homo sapiens, UniProt P21731)
# T1 construct: Human platelets incubate in the presence of a single concentration; endogenous in cells; host or cells: human platelets
# T1 sequence (P21731 1-343): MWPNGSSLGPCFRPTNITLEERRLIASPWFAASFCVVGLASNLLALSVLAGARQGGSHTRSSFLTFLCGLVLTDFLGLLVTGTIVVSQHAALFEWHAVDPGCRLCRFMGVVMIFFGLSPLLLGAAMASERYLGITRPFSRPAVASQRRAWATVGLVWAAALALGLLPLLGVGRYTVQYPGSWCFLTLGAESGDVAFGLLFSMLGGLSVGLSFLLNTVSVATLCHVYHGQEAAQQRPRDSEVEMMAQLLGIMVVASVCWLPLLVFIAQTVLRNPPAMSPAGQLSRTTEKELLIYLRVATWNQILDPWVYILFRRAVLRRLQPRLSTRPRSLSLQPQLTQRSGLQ
# Experiment: displacement of radioligand [^125 I]PTA-OH specifically bound to the TXA2 receptors of human platelets
# Type: binding
# Details: for inhibition at 10 µM / inhibition at 0.1 µM: 0.5 h, 30 minutes at 37° C; for inhibition at 10 µM: 1E-5 M competing agent, read-out: % displacement, Concentration 1E-5 M; for inhibition at 0.1 µM: 1E-7 M competing agent, read-out: % displacement, Concentration 1E-7 M; for pKi: determined according to the formula of CHENG and PRUSOFF, read-out: Ki (inhibition constant)
# Protocol: The affinity of the products of the Examples described for thromboxane A2 receptors is evaluated by the technique of displacing a radioligand specifically bound to the TXA2 receptors of human platelets. […] The reaction is completed by the addition of a buffer, followed by rapid filtration through […] filters. […] The results are expressed, for the doses tested, as the percentage displacement of the radioligand specifically bound to the TXA2 receptors of human platelets.
Compound,inhibition at 10 µM [%],inhibition at 0.1 µM [%],pKi
"CC(C)(CC(=O)O)Cc1nc2cc(F)ccc2n1Cc1ccc(Br)cc1 [Example 109, 4-[1-(4-Bromobenzyl)-5-fluorobenzimidazol-2-yl]-3,3-dimethylbutanoic acid]",92,95,
"C[S+]([O-])c1ccc(Cn2c(CC(C)(C)CC(=O)O)nc3cc(Cl)ccc32)cc1 (stereo not shown) [Example 118, 4-[1-(4-Methylsulfoxybenzyl)-5-chlorobenzimidazol-2-yl]-3,3-dimethylbutanoic acid]",92,54,
"CC(C)(CC(=O)O)Cc1nc2cc(Cl)ccc2n1Cc1ccc(S(C)(=O)=O)cc1 [Example 119, 4-[1-(4-Methylsulfonylbenzyl)-5-chlorobenzimidazol-2-yl]-3,3-dimethylbutanoic acid]",82,61,
"CC(C)(CC(=O)O)Cc1nc2cc(Cl)ccc2n1Cc1ccc(Cl)cc1F [Example 123, 4-[1-(2-Fluoro-4-chlorobenzyl)-5-chlorobenzimidazol-2-yl]3,3-dimethylbutanoic acid]",87,77,
"CC(C)(CC(=O)O)Cc1nc2cc(Br)ccc2n1Cc1ccc(Cl)cc1 [Example 127, 4-[1 (4-Chlorobenzyl)-5-bromobenzimidazol-2-yl]-3,3-dimethylbutanoic acid]",67,38,
"COc1ccc(Cn2c(CC(C)(C)CC(=O)O)nc3cc(F)ccc32)cc1 [Example 131, 4-[1-(4-Methoxybenzyl)-5 fluorobenzimidazol-2-yl]-3,3-dimethylbutanoic acid]",100,79,
"CC(C)(CC(=O)O)Cc1nc2cc(Cl)ccc2n1Cc1ccc(Br)cc1F [Example 135, 4-[1-(2-Fluoro-4-bromobenzyl)-5-chlorobenzimidazol-2-yl]3,3-dimethylbutanoic acid]",95,74,
"O=C(O)CC1(Cc2nc3cc(F)ccc3n2Cc2ccc(Cl)cc2)CC1 [Example 150, [1-[1-(4-Chlorobenzyl)-5-fluorobenzimidazol-2-yl]methylcycloprop-1-yl]acetic acid]",98,80,
"CC(C)(CCC(=O)O)Cc1nc2cc(F)ccc2n1Cc1ccc(Cl)cc1 [Example 158, 5-[1-(4-Chlorobenzyl)-5-fluorobenzimidazol-2-yl]-4,4-dimethylpentanoic acid]",87,56,

# Now from value to molecule:
inhibition at 10 µM [%],inhibition at 0.1 µM [%],pKi,Compound
89,87,8.24,"CSc1ccc(Cn2c(CC(C)(C)CC(=O)O)nc3cc(Cl)ccc32)cc1 [Example 117, 4-[1-(4-Methylthiobenzyl)-5-chlorobenzimidazol-2-yl]-3,3-dimethylbutanoic acid]"
100,98,7.89,"CC(C)(CC(=O)O)Cc1nc2cc(Cl)ccc2n1Cc1ccc(Br)cc1 [Example 139, 4-[1 (4-Bromobenzyl)-5-chlorobenzimidazol-2-yl]-3,3-dimethylbutanoic acid]"
89,77,,"CC(C)(CC(=O)O)Cc1nc2cc(Cl)ccc2n1Cc1ccc2ccccc2c1 [Example 143, 4-[1-(Naphth-2-ylmethyl)-5-chlorobenzimidazol-2-yl]-3,3-dimethylbutanoic acid]"
93,91,,"CC(C)(CC(=O)O)Cc1nc2cc(F)ccc2n1Cc1ccc2ccccc2c1 [Example 147, 4-[1(Naphth-2-ylmethyl)-5-fluorobenzimidazol-2-yl]-3,3-dimethylbutanoic acid]"
